Experiments:
[1] = system: androgen-independent human prostate cancer cell line, PC-3; assay: XTT cell proliferation assay, PC-3; format: cell-based; details: lycopene 0.1 and 0.25 mg/ml
Method: (§1) Cell Proliferation Assays (FIGS. 7, 8, 16, and 17):
(§2) Human androgen-sensitive prostate cancer cell line, LNCaP, and androgen-insensitive prostate cancer cell line, PC-3 were cultured in RPMI-1640 medium supplemented with 2 mM L-glutamine and 10% fetal bovine serum (FBS). For proliferation assays LNCaP and PC-3 cells were seeded at 15,000 cells/well density in 24-well plates with complete medium (with 10% FBS). Cells were let to attach for 20 h and then, the culture medium was exchanged for fresh serum-free medium containing the respective treatments (androgens and test compounds). Viable cells content in each well was determined 72 h afterwards.
(§3) Proliferation was determined by the XTT cell viability assay (Cell Proliferation Kit II (XTT), Sigma-Aldrich, St. Louis, Mo., USA). This is a colorimetric assay that analyzes the number of viable cells by the cleavage of tetrazolium salts added to the culture medium. The cleavage product of tetrazolium salt XTT, in contrast to MTT, is soluble in water. The tetrazolium salt XTT is cleaved to formazan by a complex cellular mechanism. This bioreduction occurs in viable cells only. […] After this incubation period, the amount of formazan dye formed was quantitated using a plate reader. The measured absorbance at 490 nm directly correlates to the number of viable cells.

[2] = system: human bladder neck strips from patients with BPH/LUTS; assay: Organ bath, norepinephrine-contracted human bladder neck strips
Method: (§4) Organ Bath Experiments with Human Prostate and Bladder Tissues (FIGS. 10, 12, 19, and 20):
(§5) Specimens of human prostate and bladder neck were obtained from patients undergoing suprapubic adenomectomy (Millin's approach) for benign prostatic hyperplasia (BPH). […]
(§6) Human prostate and bladder neck specimens were cleaned of fat and connective tissue and cut into strips for organ bath assays. […] Tissues were subsequently exposed to 125 mM K^+ (equimolar substitution of […] in KHS) and contractile response was measured to check functionality. The relaxant effect induced by increasing doses of the NtB extract or the vehicle (distilled water) was evaluated in human prostate and bladder neck strips precontracted with 3-10 μM norepinephrine (NE) (80% of K^+-induced contraction, approximately) (FIG. 10). Relaxations of human prostate and bladder neck induced by PDES inhibition were evaluated by adding increasing concentrations of tadalafil (1 nM to 100 μM) on strips precontracted with NE and previously treated with NtB (10 mg/ml) or vehicle (distilled water) (FIG. 12). […] Concentration-response (relaxation) curves to lycopene (0.025 to 0.5 mg/ml) were also determined after NE-induced contraction in human bladder neck (FIG. 20A).

[3] = system: prostatic specific antigen (PSA) production by LNCaP; assay: Androgen-stimulated PSA production (ELISA) in LNCaP cells; format: cell-based, human; details: testosterone or dihydrotestosterone (40 nM), 24 h; lycopene 0.1 and 0.25 mg/ml
Method: Prostatic-Specific Antigen (PSA) Determinations (FIGS. 9 and 18):
For this purpose, LNCaP cells were seeded at 25,000 cells/well in 24-well plates and let to grow in complete medium (10% FBS) at 80% confluence, approximately, that is typically achieved after 48 h. The culture medium was then exchanged for fresh serum-free medium containing the respective treatments (androgens and/or NtB and/or lycopene). Conditioned media was collected 24 h afterwards and PSA concentrations were determined by using a colorimetric ELISA kit following manufacturer's instructions (Ray Biotech, Norcross, Ga., USA).

[4] = system: androgen-sensitive human prostate cancer cell line, LNCaP; assay: XTT cell proliferation assay, LNCaP; format: cell-based
Method: as §1, §2, §3

[5] = system: human prostate strips from patients with BPH/LUTS; assay: Organ bath, norepinephrine-contracted human prostate strips
Method: as §4, §5, §6

SMILES: CC(C)=CCC/C(C)=C/C=C/C(C)=C/C=C/C(C)=C/C=C/C=C(C)/C=C/C=C(C)/C=C/C=C(\C)CCC=C(C)C [lycopene]
- proliferation of PC-3 cells in the absence of androgen stimulation [1]: did not significantly influence proliferation
- proliferation of PC-3 cells in the presence of T or DHT ([1]; T or DHT 40 nM): failed to significantly reduce proliferation
- relaxation (reversion of NE-induced contraction) of human bladder neck strips [2]: could have relaxant activity by itself
- androgen-stimulated PSA production in LNCaP cells [3]: prevented
- testosterone- or dihydrotestosterone-induced increase in proliferation of LNCaP cells ([4]; lycopene 0.25 mg/ml, T or DHT 40 nM): effectively reversed
- proliferation of LNCaP cells in the absence of androgen stimulation ([4]; lycopene 0.1 and 0.25 mg/ml): did not significantly influence proliferation
- relaxation (reversion of NE-induced contraction) of human prostate strips [5]: could have relaxant activity by itself
